# From patent US20230416329A1, “A PEPTIDE WITH DISULFIDE BONDS AND INHIBITORY ACTIVITY AGAINST SERINE PROTEASES, DERIVED HYBRID PEPTIDES THEREOF, AND USES THEREOF” (INSTITUTE OF MATERIA MEDICA , CHINESE ACADEMY OF MEDICAL …, priority 2020, published 2023)
# Experiments:
# chymotrypsin = chymotrypsin (Bos taurus, UniProt P00766); experiment: in vitro; details: isolated enzyme chymotrypsin, pH 7.8, Remaining peak area (%)/chymotrypsin
# How it was run: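 RP-HPLC peak area tracked intact peptide after 37 °C digestion with chymotrypsin (0.05 μg/μL solution, 5 min preincubation). Samples were withdrawn at 1.5-60.0 min and stopped with 10% TFA.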
# trypsin = target: T1, trypsin (Bos taurus, UniProt P00760); experiment: in vitro; details: isolated enzyme trypsin, pH 7.8
# T1 sequence (P00760 24-246): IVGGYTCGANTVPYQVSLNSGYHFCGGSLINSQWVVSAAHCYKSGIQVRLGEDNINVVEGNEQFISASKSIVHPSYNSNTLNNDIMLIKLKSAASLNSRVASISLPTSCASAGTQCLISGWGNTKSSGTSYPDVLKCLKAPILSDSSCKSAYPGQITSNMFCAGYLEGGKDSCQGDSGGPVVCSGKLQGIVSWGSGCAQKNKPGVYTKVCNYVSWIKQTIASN
# How it was run: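 Remaining RP-HPLC peak area tracks undigested peptide over time. Samples were quenched with 10% TFA at time points between 1.5 and 60 min during 37 °C digestion. Trypsin was added from a 0.05 μg/μL solution after 5 min of thermal equilibration.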
# DPP-IV = DPP-IV (Homo sapiens, UniProt P27487); experiment: Tolerance of GLP-1 and its analogues to DPP-IV (RP-HPLC remaining peak area); format: in vitro ADME; details: peptide 25 μM, DPP-IV 0.5 ng/μL, 37° C.
# Chain of DPP-IV (P27487 whole entry, species assumed): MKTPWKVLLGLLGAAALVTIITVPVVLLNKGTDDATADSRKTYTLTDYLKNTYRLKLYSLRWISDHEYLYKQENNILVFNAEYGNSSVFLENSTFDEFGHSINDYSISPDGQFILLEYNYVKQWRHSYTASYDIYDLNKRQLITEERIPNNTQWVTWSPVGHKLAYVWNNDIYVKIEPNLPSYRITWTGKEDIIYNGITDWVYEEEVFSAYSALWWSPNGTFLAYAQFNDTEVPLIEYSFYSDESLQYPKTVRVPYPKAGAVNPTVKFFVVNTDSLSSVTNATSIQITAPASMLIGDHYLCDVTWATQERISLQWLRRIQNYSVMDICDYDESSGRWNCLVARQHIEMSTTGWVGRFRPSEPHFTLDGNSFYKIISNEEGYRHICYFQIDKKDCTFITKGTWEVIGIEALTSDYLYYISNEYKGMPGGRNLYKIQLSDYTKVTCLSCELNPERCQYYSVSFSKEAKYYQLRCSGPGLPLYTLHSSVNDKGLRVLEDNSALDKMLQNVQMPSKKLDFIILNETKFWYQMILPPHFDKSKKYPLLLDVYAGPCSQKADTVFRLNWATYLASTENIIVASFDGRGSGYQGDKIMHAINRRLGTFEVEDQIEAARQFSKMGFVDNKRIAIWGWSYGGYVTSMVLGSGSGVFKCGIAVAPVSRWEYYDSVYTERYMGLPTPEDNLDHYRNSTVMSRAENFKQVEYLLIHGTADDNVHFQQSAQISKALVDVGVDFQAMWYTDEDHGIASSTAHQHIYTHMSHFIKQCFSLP
# Method: (§1) Mix by centrifugation at 8000 rpm for 30 seconds.
# (2) Arrange a certain volume of 0.005 μg/μL DPP-IV solution in another sterile EP.
# NEP24.11 = NEP24.11 (Homo sapiens, UniProt P08473); experiment: Tolerance of GLP-1 and its analogues to NEP24.11 (RP-HPLC remaining peak area); format: in vitro ADME; details: peptide 30 μM, NEP24.11 1.0 ng/μL, 37° C.
# Chain of NEP24.11 (P08473 whole entry): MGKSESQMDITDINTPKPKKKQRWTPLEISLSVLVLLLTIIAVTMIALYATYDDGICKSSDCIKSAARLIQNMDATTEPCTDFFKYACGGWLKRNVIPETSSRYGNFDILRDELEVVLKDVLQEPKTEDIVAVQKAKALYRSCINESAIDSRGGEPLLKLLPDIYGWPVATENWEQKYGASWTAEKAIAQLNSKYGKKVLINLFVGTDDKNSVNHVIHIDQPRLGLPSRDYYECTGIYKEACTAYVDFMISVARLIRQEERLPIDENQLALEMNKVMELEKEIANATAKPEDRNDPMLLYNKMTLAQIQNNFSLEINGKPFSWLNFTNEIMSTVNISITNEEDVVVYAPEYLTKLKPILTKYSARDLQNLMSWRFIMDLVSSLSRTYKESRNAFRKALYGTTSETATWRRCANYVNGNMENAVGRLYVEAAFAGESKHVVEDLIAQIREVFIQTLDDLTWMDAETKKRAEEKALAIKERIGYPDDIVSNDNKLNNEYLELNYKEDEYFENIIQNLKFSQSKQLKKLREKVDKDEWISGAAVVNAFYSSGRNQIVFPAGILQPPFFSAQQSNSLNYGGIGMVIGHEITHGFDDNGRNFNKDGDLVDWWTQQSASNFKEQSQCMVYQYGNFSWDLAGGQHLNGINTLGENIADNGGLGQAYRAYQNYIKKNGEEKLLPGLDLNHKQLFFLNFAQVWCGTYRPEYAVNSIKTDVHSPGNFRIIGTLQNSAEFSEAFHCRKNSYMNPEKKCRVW
# Method: as §1
# Arrange a certain volume of 0.04 μg/μL NEP24.11 enzyme solution in another sterile EP.
smiles,measurement,setting,value
CC[C@H](C)[C@H](NC(=O)[C@H](Cc1ccccc1)NC(=O)[C@H](CCC(=O)O)NC(=O)[C@H](CCCCN)NC(=O)[C@H](C)NC(=O)[C@H](C)NC(=O)[C@H](CCC(N)=O)NC(=O)CNC(=O)[C@H](CCC(=O)O)NC(=O)[C@H](CC(C)C)NC(=O)[C@H](Cc1ccc(O)cc1)NC(=O)[C@H](CO)NC(=O)[C@H](CO)NC(=O)[C@@H](NC(=O)[C@H](CC(=O)O)NC(=O)[C@H](CO)NC(=O)[C@@H](NC(=O)[C@H](Cc1ccccc1)NC(=O)[C@@H](NC(=O)CNC(=O)[C@H](CCC(=O)O)NC(=O)[C@H](C)NC(=O)[C@H](Cc1c[nH]cn1)NC(=O)CNC(=O)CNC(=O)[C@H](CCCNC(=N)N)NC(=O)[C@H](CO)NC(=O)[C@H](Cc1ccccc1)NC(=O)[C@H](CCCNC(=N)N)NC(=O)[C@H](CCC(N)=O)NC(=O)CN)[C@@H](C)O)[C@@H](C)O)C(C)C)C(=O)N[C@@H](C)C(=O)N[C@@H](Cc1c[nH]c2ccccc12)C(=O)N[C@@H](CC(C)C)C(=O)N[C@H](C(=O)N[C@@H](CCCCN)C(=O)NCC(=O)N[C@@H](CCCNC(=N)N)C(=O)NCC(=O)NCC(=O)N[C@@H](CCCCN)C(=O)NCC(=O)N[C@@H](CCCNC(=N)N)C(=O)N[C@H]1CSSC[C@@H](C(=O)N[C@@H](Cc2ccccc2)C(=O)N2CCC[C@H]2C(=O)O)NC(=O)[C@H]([C@@H](C)CC)NC(=O)[C@@H]2CCCN2C(=O)[C@@H]2CCCN2C(=O)[C@H]([C@@H](C)CC)NC(=O)[C@H](CO)NC(=O)[C@H](CCCCN)NC(=O)[C@H]([C@@H](C)O)NC1=O)C(C)C [N-GLP-1-BT1],"remaining at 0.025 h, 60 μM",chymotrypsin,79.5 ± 4.9%
same,"remaining at 0.05 h, 60 μM",chymotrypsin,71.8 ± 2.7%
same,"remaining at 0.075 h, 60 μM",chymotrypsin,64.9 ± 1%
same,"remaining at 0.1 h, 60 μM",chymotrypsin,59.8 ± 2.9%
same,"remaining at 0.15 h, 60 μM",chymotrypsin,51.9 ± 1%
same,"remaining at 0.025 h, 60 μM",trypsin,89.2 ± 3.7%
same,"remaining at 0.05 h, 60 μM",trypsin,83.2 ± 2.3%
same,"remaining at 0.075 h, 60 μM",trypsin,79.1 ± 1%
same,"remaining at 0.1 h, 60 μM",trypsin,84.4 ± 3.4%
same,"remaining at 0.15 h, 60 μM",trypsin,83.9 ± 0.5%
same,"remaining at 0.25 h, 60 μM",trypsin,84.5 ± 4.9%
same,"remaining at 0.5 h, 60 μM",trypsin,83.7 ± 3%
same,"remaining at 1 h, 60 μM",trypsin,83.5 ± 1.4%
same,Remaining peak area (%)/DPP-IV,DPP-IV; 0.0 h,100.0 ± 0.0%
same,"remaining at 0.5 h, 25 μM","DPP-IV; isolated DPP-IV enzyme in buffer, pH 8, 0.5 h",84 ± 0.1%
same,"remaining at 2 h, 25 μM","DPP-IV; isolated DPP-IV enzyme in buffer, pH 8, 2.0 h",80.1 ± 0.9%
same,"remaining at 4 h, 25 μM","DPP-IV; isolated DPP-IV enzyme in buffer, pH 8, 4.0 h",76 ± 1.6%
same,"remaining at 8 h, 25 μM","DPP-IV; isolated DPP-IV enzyme in buffer, pH 8, 8.0 h",74.1 ± 0.5%
same,"remaining at 12 h, 25 μM","DPP-IV; isolated DPP-IV enzyme in buffer, pH 8, 12.0 h",72.1 ± 2%
same,Remaining peak area (%)/NEP24.11,NEP24.11; 0.0 h,100.0 ± 0.0%
same,"remaining at 0.5 h, 30 μM","NEP24.11; isolated NEP24.11 enzyme in buffer, pH 7.4, 0.5 h",82.3 ± 8.3%
same,"remaining at 2 h, 30 μM","NEP24.11; isolated NEP24.11 enzyme in buffer, pH 7.4, 2.0 h",80.3 ± 2%
same,"remaining at 4 h, 30 μM","NEP24.11; isolated NEP24.11 enzyme in buffer, pH 7.4, 4.0 h",74.4 ± 9.1%
same,"remaining at 8 h, 30 μM","NEP24.11; isolated NEP24.11 enzyme in buffer, pH 7.4, 8.0 h, read-out: Remaining peak area (%)/NEP24.11",68.7 ± 8.4%
